According to patent publication US8536187B2 (Gilead Sciences, Inc., priority 2008, dated 2013):

Columns and labels:
[1] = system: HCV replicon in human hepatoma Huh-7 cell line; test: Anti-HCV replicon assay, EC50 (luciferase luminescence); type: cell-based; details: Hepatitis C virus, Huh-7, 72 h
Procedure: (§1) The anti-HCV activity of the pyrido[3,2-d]pyrimidine derivatives of this invention was tested in a human hepatoma Huh-7 cell line harboring a HCV replicon. The assay comprised the following steps: • Step 1: compound preparation and serial dilution: serial dilution is performed in 50% DMSO in a 384-well plate. A solution containing a compound at 100-fold concentration of the starting final serial dilution concentration was prepared in 50% DMSO and added to the pre-specified wells in column 1 of a polypropylene 384-well plate. The plate was then placed on a Precision 2000 Workstation to start the serial dilution. After the serial dilution, a volume of 2 μL of the solution was transferred from the 384-well plate to a 96-well cell culture plate containing 100 μL of cell media on a Biomek FX Workstation. The DMSO concentration in the final assay condition was 0.5% after cells are added to the plate and the total volume in each well is brought to 200 μL. • Step 2: to each well of the serial dilution plate prepared above, 100 μL of cell media containing 6000 suspended Huh-7 HCV replicon cells was added with a Multidrop workstation. The plates were incubated for 3 days at 37° C. with 5% CO2. • Step 3: detection: • a) for the EC50 assay, the media in a 96-well cell culture plate was aspirated with a Biotek EL405 plate-washer. A volume of 200 μL of a solution containing a 1:1 mixture of cell-lysis buffer (Promega, Luciferase Cell Culture Lysis 5× Reagent, cat. #E1531) and luciferase substrate solution (Promega, Luciferase Assay, cat.# E4550) was added to each well of the plate with Multidrop. The plate was incubated for 30 minutes at room temperature before the luminescence signal was measured with a TopCount plate-reader. • b) for the CC50 assay, a volume of 100 μL of pre-mixed CellTiter-Glo (Promega, cat.# G7572) solution is added directly to the cell culture in each well of the plate and the luminescence signal is measured with a TopCount plate-reader after 10 minutes of incubation at room temperature.

[2] = CC50 assay (CellTiter-Glo) in Huh-7 HCV replicon cells; type: cell-based; details: human
Procedure: as §1

Structure (SMILES) | EC50 [1] [nM] | CC50 at 3 days ([2]; Table 2, 3 days incubation) [nM] | CC50 at 3 days ([2]; Table 1, 3 days incubation) [nM]
COCC#Cc1ccc2nc(N[C@H](C)c3ccc(S(N)(=O)=O)cc3)nc(NCC(F)(F)F)c2n1 [Example 277, (R)-4-(1-(6-(3-methoxyprop-1-ynyl)-4-(2,2,2-trifluoroethyl-amino)pyrido[3,2-d]pyrimidin-2-ylamino)ethyl)benzene-sulfonamide] | < 100 | > 10000 | –
CC1(Oc2nc(NCc3ccc(-n4cncn4)cc3)nc3ccc(-c4cnc(OC5CC5)nc4)nc23)CC1 [Example 257, N-(4-(1H-1,2,4-triazol-1-yl)benzyl)-6-(2-cyclopropoxy-pyrimidin-5-yl)-4-(1-methyl-cyclopropoxy)pyrido[3,2-d] pyrimidin-2-amine] | < 100 | 1000 to 10000 | –
COCCNc1nc(NCC(F)(F)F)c2nc(-c3ccc(OC)c(S(C)(=O)=O)c3)ccc2n1 [Example 153, 6-(4-methoxy-3-(methylsulfonyl)phenyl)-N^2-(2-methoxyethyl)-N^4-(2,2,2-trifluoroethyl)pyrido[3,2-d] pyrimidine-2,4-diamine] | < 100 | > 10000 | –
NS(=O)(=O)c1ccc(CNc2nc(NC3(C(F)(F)F)CC3)c3nc(-c4ccc(F)cc4)ccc3n2)c(Cl)c1 [Example 43, 3-chloro-4-((6-(4-fluorophenyl)-4-(1-(trifluoromethyl)cyclopropyl-amino)pyrido[3,2-d]pyrimidin-2-ylamino)methyl)benzene-sulfonamide] | 250 to 2000 | > 10000 | –
C[C@@H](Nc1nc(OC2CC2)c2nc(-c3ccc(F)cc3)ccc2n1)c1ccc(S(N)(=O)=O)cc1 [Example 13, (R)-4-{1-[6-(4-Fluoro-phenyl)-4-cyclopropoxy-pyrido[3,2-d]pyrimidin-2-ylamino]-ethyl}-benzenesulfonamide] | 100 to 250 | – | 10000 to 25000
NS(=O)(=O)c1cc(F)cc(CNc2nc(NC3(C(F)(F)F)CC3)c3nc(C#CC4CC4)ccc3n2)c1 [Example 63, 3-((6-(2-cyclopropylethynyl)-4-(1-(trifluoromethyl)cyclopropylamino)pyrido[3,2-d]pyrimidin-2-ylamino)methyl)-5-fluorobenzenesulfonamide] | < 100 | > 10000 | –
FC(F)(F)CNc1nc(NCc2ccc(-n3cncn3)cc2)nc2ccc(C#CC3CC3)nc12 [Example 287, N^2-(4-(1H-1,2,4-triazol-1-yl)benzyl)-6-(2-cyclopropyl-ethynyl)-N^4-(2,2,2-trifluoroethyl) pyrido[3,2-d]pyrimidine-2,4-diamine] | 100 to 250 | > 10000 | –
COc1ccc(-c2ccc3nc(NCc4ccc(S(N)(=O)=O)cc4)nc(NCC(F)(F)F)c3n2)cc1S(=O)(=O)C1CC1 [Example 157, 4-((6-(3-(cyclopropylsulfonyl)-4-methoxyphenyl)-4-(2,2,2-trifluoroethylamino)pyrido [3,2-d]pyrimidin-2-ylamino)methyl)benzenesulfonamide] | < 100 | > 10000 | –
[2H]C([2H])([2H])C([2H])([2H])Oc1ccc(-c2ccc3nc(NCc4ccc(-n5cncn5)cc4)nc(NCC(F)(F)F)c3n2)cn1 [Example 256, N^2-(4-(1H-1,2,4-triazol-1-yl)benzyl)-6-(6-pentadeutero-ethoxypyridin-3-yl)-N^4-(2,2,2-trifluoroethyl)pyrido[3,2-d] pyrimidine-2,4-diamine] | < 100 | > 10000 | –
CCOc1ccc(-c2ccc3nc(NCc4ccc(-n5cncn5)cc4)nc(NCC(F)(F)F)c3n2)cc1S(N)(=O)=O [Example 243, 5-(2-(4-(1H-1,2,4-triazol-1-yl)benzylamino)-4-(2,2,2-trifluoroethylamino)pyrido [3,2-d]pyrimidin-6-yl)-2-ethoxybenzenesulfonamide] | < 100 | > 10000 | –
NS(=O)(=O)c1cc(Cl)cc(CNc2nc(NC3(C(F)(F)F)CC3)c3nc(-c4ccc(F)cc4)ccc3n2)c1 [Example 27, 3-chloro-5-{[6-(4-fluorophenyl)-4-(1-trifluoromethyl-cyclopropylamino)-pyrido[3,2-d]pyrimidin-2-ylamino]-methyl}-benzenesulfonamide] | 100 to 250 | > 10000 | –
CC(C)Oc1ccc(-c2ccc3nc(N[C@H](C)Cn4cncn4)nc(NCC(F)(F)F)c3n2)cn1 [Example 241, N^2-((R)-1-(1H-1,2,4-triazol-1-yl)propan-2-yl)-6-(6-isopropoxypyridin-3-yl)-N^4-(2,2,2-trifluoroethyl)pyrido [3,2-d]pyrimidine-2,4-diamine] | < 100 | > 10000 | –
CS(=O)(=O)c1cccc(CNc2nc(NC3(C(F)(F)F)CC3)c3nc(-c4ccc(N5CCNC5=O)cc4)ccc3n2)c1 [Example 111, 1-(4-(2-(3-(methylsulfonyl)benzylamino)-4-(1-(trifluoromethyl)cyclopropyl-amino)pyrido[3,2-d]pyrimidin-6-yl)phenyl)imidazolidin-2-one] | < 100 | 1000 to 10000 | –
NS(=O)(=O)c1cc(CNc2nc(NC3(C(F)(F)F)CC3)c3nc(-c4ccc(F)cc4)ccc3n2)cc(C(F)(F)F)c1 [Example 26, 3-{[6-(4-fluorophenyl)-4-(1-trifluoromethyl-cyclopropylamino)-pyrido[3,2-d]pyrimidin-2-ylamino]-methyl}-5-trifluoromethyl-benzenesulfonamide] | 100 to 250 | > 10000 | –
COc1ccc(-c2ccc3nc(NCc4cc(F)cc(F)c4)nc(NC4(C(F)(F)F)CC4)c3n2)cc1S(C)(=O)=O [Example 40, N^2-(3,5-difluorobenzyl)-6-(4-methoxy-3-(methylsulfonyl)phenyl)-N^4-(1-(trifluoromethyl)cyclopropyl)pyrido[3,2-d] pyrimidine-2,4-diamine] | < 100 | 1000 to 10000 | –
CS(=O)(=O)c1cccc(CNc2nc(NC3(C(F)(F)F)CC3)c3nc(-c4ccc(F)cc4C#N)ccc3n2)c1 [Example 104, 2-(2-(3-(methylsulfonyl)benzylamino)-4-(1-(trifluoromethyl)cyclopropyl-amino)pyrido[3,2-d]pyrimidin-6-yl)-5-fluorobenzonitrile] | 100 to 250 | > 10000 | –
COc1nc(N[C@H](C)c2ccc(S(N)(=O)=O)cc2)nc2ccc(C#CC3CC3)nc12 [Example 315, (R)-4-(1-(6-(2-cyclopropyl-ethynyl)-4-methoxypyrido [3,2-d]pyrimidin-2-ylamino)ethyl)benzenesulfonamide] | 250 to 2000 | > 10000 | –
Fc1cc(-c2ccc3nc(NCc4cccc(-n5cncn5)c4)nc(NC4(C(F)(F)F)CC4)c3n2)cnc1NC1CC1 [Example 62, N^2-(3-(1H-1,2,4-triazol-1-yl)benzyl)-6-(6-(cyclopropylamino)-5-fluoropyridin-3-yl)-N^4-(1-(trifluoromethyl)cyclopropyl) pyrido[3,2-d]pyrimidine-2,4-diamine] | < 100 | > 10000 | –
CS(=O)(=O)c1cccc(-c2ccc3nc(NC4CC4)nc(NCC(F)(F)F)c3n2)c1 [Example 138, N^2-cyclopropyl-6-(3-(methylsulfonyl)phenyl)-N^4-(2,2,2-trifluoroethyl)pyrido [3,2-d]pyrimidine-2,4-diamine] | 100 to 250 | > 10000 | –
C[C@@H](Nc1nc(NCC(F)(F)F)c2nc(C#CC3CC3)ccc2n1)c1ccc(S(N)(=O)=O)cc1 [Example 275, (R)-4-(1-(6-(2-cyclopropyl-ethynyl)-4-(2,2,2-trifluoro-ethylamino)pyrido[3,2-d]pyrimidin-2-ylamino)ethyl) benzenesulfonamide] | < 100 | > 10000 | –
N#Cc1cc(CNc2nc(NC3(C(F)(F)F)CC3)c3nc(-c4ccc(F)cc4)ccc3n2)cc(S(N)(=O)=O)c1 [Example 49, 3-cyano-5-((6-(4-fluorophenyl)-4-(1-(trifluoromethyl)cyclopropyl-amino)pyrido[3,2-d]pyrimidin-2-ylamino)methyl)benzene-sulfonamide] | < 100 | > 10000 | –
O=C1NCCN1c1ccc(-c2ccc3nc(NCc4ccc(-n5cncn5)cc4)nc(NC4(C(F)(F)F)CC4)c3n2)cc1 [Example 129, 1-(4-(2-(4-(1H-1,2,4-triazol-1-yl)benzylamino)-4-(1-(trifluoromethyl)cyclopropyl-amino)pyrido[3,2-d]pyrimidin-6-yl)phenyl)imidazolidin-2-one] | < 100 | < 1000 | –
COc1ccc(-c2ccc3nc(NCc4ccc(S(N)(=O)=O)cc4)nc(NCC(F)(F)F)c3n2)cc1C(N)=O [Example 226, 4-((6-(3-(aminocarbonyl)l-4-methoxyphenyl)-4-(2,2,2-trifluoroethylamino)pyrido [3,2-d]pyrimidin-2-ylamino)methyl)benzene-sulfonamide] | < 100 | – | –
